This is an account of results in US20160060260A1, “BROMODOMAIN INHIBITORS FOR TREATING DISEASE” (Board of Regents, The University of Texas System, priority 2014, published 2016).

For the assay, the target named is T1, Recombinant human His-tagged Trim24-PHD-bromodomain (Homo sapiens, UniProt O15164).
T1 construct: Recombinant human His-tagged Trim24-PHD-bromodomain (produced in-house); made in house
T1 sequence (O15164 824-1006 limits assumed): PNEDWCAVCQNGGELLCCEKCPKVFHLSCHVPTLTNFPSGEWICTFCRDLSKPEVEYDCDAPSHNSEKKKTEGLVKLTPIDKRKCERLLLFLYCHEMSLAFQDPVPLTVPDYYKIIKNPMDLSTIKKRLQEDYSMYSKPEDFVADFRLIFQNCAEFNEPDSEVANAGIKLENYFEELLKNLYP
Description: Trim24 AlphaScreen Assay. The following applies: 5 nM Trim24 protein, 15 nM biotinylated H3K23ac (1-33aa) peptide. It counts as binding. A digest of the protocol: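 AlphaScreen read-out after 2 h with streptavidin donor and Ni-chelate acceptor beads at 10 ug/mL each, following 1 h room-temperature incubation of compound, His-tagged PHD-bromodomain protein and biotin-H3K23ac (1-33aa) peptide in Hepes pH 7.5 buffer with NaCl and Triton X-100. Signals normalised between no-compound and no-protein wells; IC50 from four-parameter logistic curves.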
Turning to `CCCOc1ccc(F)c(Oc2cc3c(cc2NS(=O)(=O)c2ccc(OC)c(OC)c2)n(C)c(=O)n3C)c1` [Example 134, N-(6-(2-fluoro-5-propoxyphenoxy)-1,3-dimethyl-2-oxo-2,3-dihydro-1H-benzo[d]imidazol-5-yl)-3,4-dimethoxybenzenesulfonamide], the IC50 lay within 0.01 to 0.1 µM.
For the compound `CCCOc1cc(OCCCCN2CCC(O)C2)cc(Oc2cc3c(cc2NS(=O)(=O)c2ccc(OC)c(OC)c2)n(C)c(=O)n3C)c1` (stereo not drawn) [Example 247, N-(6-{3-[4-(3-hydroxypyrrolidin-1-yl)butoxy]-5-propoxyphenoxy}-1,3-dimethyl-2-oxo-2,3-dihydro-1H-1,3-benzodiazol-5-yl)-3,4-dimethoxybenzene-1-sulfonamide], the IC50 lay in the range of 0.01 to 0.1 µM.
As to `Cc1nc(S(=O)(=O)Nc2cc3c(cc2Oc2cccc(OCc4ccccc4)c2)n(C)c(=O)n3C)c[nH]1` [Example 49, N-(6-(3-(benzyloxy)phenoxy)-1,3-dimethyl-2-oxo-2,3-dihydro-1H-benzo[d]imidazol-5-yl)-2-methyl-1H-imidazole-4-sulfonamide], the IC50 is 0.1 to 1 µM.
The figure for `COc1ccc(S(=O)(=O)Nc2cc3c(cc2Oc2cc(OCCCCN(C)C)cc(OCC(F)(F)F)c2)n(C)c(=O)n3C)cc1OC` [Example 211, N-(6-(3-(4-(dimethylamino)butoxy)-5-(2,2,2-trifluoroethoxy)phenoxy)-1,3-dimethyl-2-oxo-2,3-dihydro-1H-benzo[d]imidazol-5-yl)-3,4-dimethoxybenzenesulfonamide] is 0.001 to 0.01 µM; for `Cn1c(=O)n(C)c2cc(Oc3cccc(OCc4ccccc4)c3)c(NS(=O)(=O)c3cccnc3)cc21` [Example 14, N-(6-(3-(benzyloxy)phenoxy)-1,3-dimethyl-2-oxo-2,3-dihydro-1H-benzo[d]imidazol-5-yl)pyridine-3-sulfonamide] it is 0.1 to 1 µM; for `COCCS(=O)(=O)Nc1cc2c(cc1Oc1cccc(OCC(F)(F)F)c1)n(C)c(=O)n2C` [Example 89, N-(1,3-dimethyl-2-oxco-6-(3-(2,2,2-trifluoroethoxy)phenoxy)-2,3-dihydro-1H-benzo[d]imidazol-5-yl)-2-methoxyethane-1-sulfonamide] it is 0.1 to 1 µM.
With `CCCOc1cccc(Oc2cc3c(cc2NS(=O)(=O)c2nnc[nH]2)n(C)c(=O)n3C)c1` [Example 87, N-(1,3-diemthyl-2-oxo-6-(3-propoxyphenoxy)-2,3-dihydro-1H-benzo[d]imidazol-5-yl)-4H-1,2,4-triazole-3-sulfonamide] the figure was 0.1 to 1 µM; with `CCCOc1cc(OCCCCN2CCOCC2)cc(Oc2cc3c(cc2NS(=O)(=O)c2ccc(OC)c(OC)c2)n(C)c(=O)n3C)c1` [Example 246, N-(1,3-dimethyl-6-(3-(4-morpholinobutoxy)-5-propoxyphenoxy)-2-oxo-2,3-dihydro-1H-benzo[d]imidazol-5-yl)-3,4-dimethoxybenzenesulfonamide 2,2,2-trifluoroacetate], 0.01 to 0.1 µM.
With `CCCOc1cccc(Oc2cc3c(cc2NS(=O)(=O)c2cn(C)c(C)n2)n(C)c(=O)n3C)c1` [Example 61, N-(1,3-dimethyl-2-oxo-6-(3-propoxyphenoxy)-2,3-dihydro-1H-benzo[d]imidazol-5-yl)-1,2-dimethyl-1H-imidazole-4-sulfonamide] the figure was 0.01 to 0.1 µM.
On to `CCCOc1ccc(OC)c(Oc2cc3c(cc2NS(=O)(=O)c2cn(C)cn2)n(C)c(=O)n3C)c1` [Example 113, N-(6-(2-methoxy-5-propoxyphenoxy)-1,3-dimethyl-2-oxo-2,3-dihydro-1H-benzo[d]imidazol-5-yl)-1-methyl-1H-imidazole-4-sulfonamide], for which the IC50 fell in the range of 0.1 to 1 µM.
The figure for `Cc1nc(S(=O)(=O)Nc2cc3c(cc2Oc2cccc(OCC(F)(F)F)c2)n(C)c(=O)n3C)cn1C` [Example 67, N-(1,3-dimethyl-2-oxo-6-(3-(2,2,2-trifluoroethoxy)phenoxy)-2,3-dihydro-1H-benzo[d]imidazol-5-yl)-1,2-dimethyl-1H-imidazole-4-sulfonamide] is 0.01 to 0.1 µM.
For the compound `Cn1c(=O)n(C)c2cc(Oc3cccc(OCc4ccccc4)c3)c(NS(=O)(=O)C3CC3)cc21` [Example 12, N-(6-(3-(benzyloxy)phenoxy)-1,3-dimethyl-2-oxo-2,3-dihydro-1H-benzo[d]imidazol-5-yl)cyclopropanesulfonamide], the IC50 was more than 1 µM.
The figure for `CCCOc1cc(OCCCCCCO)cc(Oc2cc3c(cc2NS(=O)(=O)c2cccnc2)n(C)c(=O)n3C)c1` [Example 180, N-(6-(3-((6-hydroxyhexyl)oxy)-5-propoxyphenoxy)-1,3-dimethyl-2-oxo-2,3-dihydro-1H-benzo[d]imidazol-5-yl)pyridine-3-sulfonamide] is 0.01 to 0.1 µM; for `COc1ccc(S(=O)(=O)Nc2cc3c(cc2Oc2cccc(OCCCCCCN)c2)n(C)c(=O)n3C)cc1OC` [Example 145, N-(6-(3-((6-aminohexyl)oxy)phenoxy)-1,3-dimethyl-2-oxo-2,3-dihydro-1H-benzo[d]imidazol-5-yl)-3,4-dimethoxybenzenesulfonamide] it is 0.01 to 0.1 µM.
The figure for `Cn1cnc(S(=O)(=O)Nc2cc3c(cc2Oc2cccc(OCCCCCCN)c2)n(C)c(=O)n3C)c1` [Example 146, N-(6-(3-((6-aminohexyl)oxy)phenoxy)-1,3-dimethyl-2-oxo-2,3-dimethyl-2-oxo-2,3-dihydro-1H-benzo[d]imidazol-5-yl)-1-methyl-1H-imidazole-4-sulfonamide] is 0.1 to 1 µM; for `COc1ccc(S(=O)(=O)Nc2cc3c(cc2Oc2cccc(OCc4ccccc4)c2)n(C)c(=O)n3C)cc1OC` [Example 1, N-(6-(3-(benzyloxy)phenoxy)-1,3-dimethyl-2-oxo-2,3-dihydro-1H-benzo[d]imidazol-5-yl)-3,4-dimethoxybenzenesulfonamide] it is 0.1 to 1 µM; for `CCCOc1cccc(Oc2cc3c(cc2NS(=O)(=O)c2c[nH]cn2)n(C)c(=O)n3C)c1` [Example 86, N-(1,3-dimethyl-2-oxo-6-(3-propoxyphenoxy)-2,3-dihydro-1H-benzo[d]imidazol-5-yl)-1H-imidazole-4-sulfonamide] it is 0.01 to 0.1 µM.
With `CCCOc1cc(OCCCOC)cc(Oc2cc3c(cc2NS(=O)(=O)c2ccc4c(c2)COC4)n(C)c(=O)n3C)c1` [Example 162, N-(6-(3-(3-methoxypropoxy)-5-propoxyphenoxy)-1,3-dimethyl-2-oxo-2,3-dihydro-1H-benzo[d]imidazol-5-yl)-1,3-dihydroisobenzofuran-5-sulfonamide] the figure was 0.1 to 1 µM.
On to `Cn1c(=O)n(C)c2cc(Oc3cccc(OCc4ccccc4)c3)c(NS(=O)(=O)c3c[nH]cn3)cc21` [Example 78, N-(6-(3-(benzyloxy)phenoxy)-1,3-dimethyl-2-oxo-2,3-dihydro-1H-benzo[d]imidazol-5-yl)-1H-imidazole-4-sulfonamide], for which the half-maximal inhibitory concentration (IC50) is 0.1 to 1 µM.
With `Cn1c(=O)n(C)c2cc(Oc3cccc(OCc4ccccc4)c3)c(NS(=O)(=O)c3cccc(F)c3)cc21` [Example 43, N-(6-(3-(benzyloxy)phenoxy)-1,3-dimethyl-2-oxo-2,3-dihydro-1H-benzo[d]imidazol-5-yl)-3-fluorobenzenesulfonamide], the IC50 was in the range of 0.1 to 1 µM.
The figure for `CCCOc1cc(OCCCCCCO)cc(Oc2cc3c(cc2NS(=O)(=O)c2ccc(OC)c(OC)c2)n(C)c(=O)n3C)c1` [Example 179, N-(6-(3-((6-hydroxyhexyl)oxy)-5-propoxyphenoxy)-1,3-dimethyl-2-oxo-2,3-dihydro-1H-benzo[d]imidazol-5-yl)-3,4-dimethoxybenzenesulfonamide] is 0.01 to 0.1 µM.
With `CCCOc1cccc(Oc2cc3c(cc2NS(=O)(=O)c2cnn(C)c2)n(C)c(=O)n3C)c1` [Example 75, N-(1,3-dimethyl-2-oxo-6-(3-propoxyphenoxy)-2,3-dihydro-1H-benzo[d]imidazol-5-yl)-1-methyl-1H-pyrazole-4-sulfonamide], the IC50 lay in the range of 0.01 to 0.1 µM.
The figure for `COc1cc(S(=O)(=O)Nc2cc3c(cc2Oc2cccc(OCC4CC4)c2)n(C)c(=O)n3C)ccc1O` [Example 241, N-(6-(3-(cyclopropylmethoxy)phenoxy)-1,3-dimethyl-2-oxo-2,3-dihydro-1H-benzo[d]imidazol-5-yl)-4-hydroxy-3-methoxybenzenesulfonamide] is 0.01 to 0.1 µM.
The figure for `COc1ccc(S(=O)(=O)Nc2cc3c(cc2Oc2cccc(OCC4CC4)c2)n(C)c(=O)n3C)cc1OC` [Example 127, N-(6-(3-(cyclopropylmethoxy)phenoxy)-1,3-dimethyl-2-oxo-2,3-dihydro-1H-benzo[d]imidazol-5-yl)-3,4-dimethoxybenzenesulfonamide] is 0.01 to 0.1 µM; for `COc1cc(OCC(C)C)cc(Oc2cc3c(cc2NS(=O)(=O)c2cn(C)c(C)n2)n(C)c(=O)n3C)c1` [Example 66, N-(6-(3-isobutoxy-5-methoxyphenoxy)-1,3-dimethyl-2-oxo-2,3-dihydro-1H-benzo[d]imidazol-5-yl)-1,2-dimethyl-1H-imidazole-4-sulfonamide] it is 0.01 to 0.1 µM; for `CCCOc1cc(OCCCOC)cc(Oc2cc3c(cc2NS(=O)(=O)c2cccc(C)c2)n(C)c(=O)n3C)c1` [Example 155, N-(6-(3-(3-methoxypropoxy)-5-propoxyphenoxy)-1,3-dimethyl-2-oxo-2,3-dihydro-1H-benzo[d]imidazol-5-yl)-3-methylbenzenesulfonamide] it is 0.1 to 1 µM.
Consider `CCCOc1cc(OCCCN)cc(Oc2cc3c(cc2NS(=O)(=O)c2ccc(OC)c(OC)c2)n(C)c(=O)n3C)c1` [Example 216, N-(6-(3-(3-aminopropoxy)-5-propoxyphenoxy)-1,3-dimethyl-2-oxo-2,3-dihydro-1H-benzo[d]imidazol-5-yl)-3,4-dimethoxybenzenesulfonamide], for which the IC50 fell in the range of 0.01 to 0.1 µM.

A word on the IC50: it is the concentration that inhibits the measured activity by half.
